Data from US20140017336A1, “CO-ADMINISTRATION OF ARSENIC COMPOUNDS AND ANTI-HERPES VIRUS ANTI-VIRALS” (priority 2011, published 2014).

Tests used:
EBV Zta mRNA = assay type: cell-based, Epstein-Barr virus
CNE1<EBV BX1> tumors = assay: CNE1<EBV BX1> nasopharyngeal carcinoma xenograft, tumor volume; assay type: in vivo, male nude mice; conditions: 21 days of once daily treatment; GCV 100 μg/g, ATO 100 ng/g; carrier control just under double
EBV Zta protein = assay type: in vivo, male nude mice; conditions: mouse, in vivo
LCL<EBV1-13> cells = assay type: cell-based, human
EBV BMRF1 mRNA = assay type: cell-based, Epstein-Barr virus; conditions: 10 nM ATO and/or 40 μM GCV
[1] = system: uninfected parental A549 cells; conditions: 4 days, 10 nM ATO, 40 μM GCV
[2] = system: LMP1 dependent upregulation of PML NBs; assay: Transfection/inhibitor studies of LMP1 upregulation of PML NBs; assay type: cell-based
Method: A series of transfection/inhibitor studies were carried out to investigate the mechanism of upregulation of the PML-NB by LMP1. […] Either inhibition of ERK phosphorylation by U0126 or Stat3 dimerization by Stattic, however, prevented the LMP1 dependent upregulation of PML NBs.

[3] = system: APL and non-APL cell lines; conditions: Konig et al., 1997; cited from earlier work
[4] = system: nonmalignant blood mononuclear cells from normal donors; conditions: cited from earlier work

For `Nc1nc2c(ncn2COC(CO)CO)c(=O)[nH]1` [GCV, 9-[[2-hydroxy-1-(hydroxymethyl)-ethoxy]methyl]guanine], the “Zta mRNA expression over 7 days” value (EBV Zta mRNA) was “no effect”, the “tumor size increase over size at day 7 (pre-treatment)” value (CNE1<EBV BX1> tumors) was “approximately 25%” and the “Zta expression in tumor explant tissue” value (EBV Zta protein) was “Only the occasional Zta positive cell”. The “viable cells after a third day of treatment compared with two days” value (LCL<EBV1-13> cells) was “did not result in reducing the number of viable cells”, the “BMRF1 mRNA expression over 7 days” value (EBV BMRF1 mRNA) was “no effect” and the “viability of uninfected parental cells” value [1] was “did not affect the viability”.

For `Cc1ccc(NCCCc2ccccc2)c(N)c1` [JSH23], the “effect on LMP1 upregulation of PML NBs” value [2] was “did not affect”.

For `Nc1nc(N)nc(Nc2ccc([As]3SCC(CO)S3)cc2)n1` (centres unmarked) [Melarsoprol, melarsoprol], the “activity against APL and non-APL cell lines” value [3] is listed as “at least equivalent to that of arsenic trioxide”.

For `C[As](C)SC[C@H](NC(=O)CC[C@H](N)C(=O)O)C(=O)NCC(=O)O` [SGLU1, S-(dimethylarsino) glutathione], the “toxicity against nonmalignant blood mononuclear cells” value [4] is given as “low toxicity”.

In the case of `O=[N+]([O-])c1ccc2c(c1)S(=O)(=O)C=C2` [Stattic], the “effect on LMP1 upregulation of PML NBs” value [2] is reported as “prevented”.

With `N#CC(=C(/N)Sc1ccccc1N)/C(C#N)=C(\N)Sc1ccccc1N` [U0126] the “effect on LMP1 upregulation of PML NBs” value [2] was “prevented”.
